Test results as given in patent US7355063B2, “Shogaol compound and tyrosinase activity inhibitor comprising the compound” (Toagosei Co., Ltd., priority 2003, dated 2008).
Values belong to the compound of their own block, whether it stands above or below them.

Legend:
[1] = Test of scavenging DPPH radical (Test Example 9, microplate reader, 540 nm); conditions: final concentration of 25 μg/mL; 20 minutes, room temperature
Text: Using the compound 36 obtained in Example 20, the compound 37 obtained in Example 21, the compound 38 obtained in Example 22, the compound 39 obtained in Example 23, the compound 40 obtained in Example 24, the compound 42 obtained in Example 26, the compound 45 obtained in Example 29, the compound 46 obtained in Example 30, the compound 48 obtained in Example 32 and, as a comparative control, dl-α-tocopherol (manufactured by Tokyo Kasei Kogyo Co., Ltd.), a test of scavenging DDPH (1,1-diphenyl-2-picrylhydrazyl) radical, a stable radical, was carried out.
100 μl of 800 μM DPPH ethanol solution was added to 80 μl of 100 mM Tris-HCl buffer (pH 7.4) and 20 μl of an ethanol solution of the compound 36 (final concentration of 25 μg/mL), followed by sufficient stirring. After the resulting mixture was allowed to stand in a dark place at room temperature for 20 minutes, the absorbance at 540 nm was measured on a microplate reader (absorbance of the test solution).
The compounds 37, 38, 39, 40, 42, 45, 46, and 48 of the invention as well as dl-α-tocopherol as a known radical scavenger were similarly tested.
As a control, using 80 μl of 100 mM Tris-HCl buffer (pH 7.4), 20 μl of ethanol, and 100 μl of 800 μM DPPH ethanol solution, the same operation was carried out as described above and the absorbance was measured (absorbance of the control solution).
With the individual compounds, the same measurement was repeated four times, and the mean value was inserted in the following formula to calculate a DPPH radical-scavenging ratio. DPPH radical-scavenging ratio (%)=[1−(absorbance of sample solution/absorbance of control solution)]×100

mushroom tyrosinase [2] = test: Tyrosinase activity inhibition test using L-dopa as substrate (Test Examples 3 to 6, microplate reader, 490 nm); type: biochemical
Method: (§1) Using the compound 37 obtained in Example 21, the compound 38 obtained in Example 22, the compound 39 obtained in Example 23, and arbutin (manufactured by Tokyo Kasei Kogyo Co., Ltd.) as a comparative control, a tyrosinase activity inhibition test was carried out using L-dopa as a substrate.
The specific test procedures are as follows. • (1) 72 μl of a phosphate buffer prepared by dissolving 1.000 g of sodium dihydrogen phosphate and 1.186 g of disodium hydrogen phosphate in 500 ml of distilled water, 80 μl of a substrate solution prepared by dissolving 32.7 mg of L-DOPA in 200 ml of distilled water, and 8 μl of a test solution prepared by dissolving the test compound in dimethyl sulfoxide were mixed together. • (2) 80 μl of an enzyme solution prepared by dissolving 3.0 mg (2400 units; manufactured by Sigma Corporation) of mushroom tyrosinase in 7.0 ml of distilled water and diluting the solution with the above phosphate buffer so as to make it five times in amount was added to the solution prepared in (1), and the whole was stirred for 15 seconds. The resulting solution was maintained at 25° C., and the absorbance at 490 nm was measured by a microplate reader one minute and 45 seconds later and 2 minutes and 45 seconds later. • (3) The test operations in the above (1) and (2) were conducted four times for the individual test compounds and blank test (only dimethyl sulfoxide), and the resulting numeric value was inserted in the following calculation formula and a mean value thereof was regarded as a tyrosinase activity inhibition ratio (%). Tyrosinase activity inhibition ratio (%)=[(T^1−T^2)/T^1]×100 • T^1=difference in absorbance of solution with addition of no test compound between 2 minutes and 45 seconds later and one minute and 45 seconds later • T^2=difference in absorbance of solution with addition of test compound was added between 2 minutes and 45 seconds later and one minute and 45 seconds later
(§2) Using the compound 42 obtained in Example 26, the compound 45 obtained in Example 29, the compound 46 obtained in Example 30, and arbutin (manufactured by Tokyo Kasei Kogyo Co., Ltd.) as a comparative control, a tyrosinase activity inhibition test was carried out using L-dopa as a substrate. The test procedure was in accordance with Test Example 3.
as §2, with “34” for “42”, “18,” for “26,”, “47” for “45”, “31,” for “29, the compound 46 obtained in Example 30,”
Using the compound 48 obtained in Example 32 and arbutin (manufactured by Tokyo Kasei Kogyo Co., Ltd.) as a comparative control, a tyrosinase activity inhibition test was carried out using L-dopa as a substrate. The test procedure was in accordance with Test Example 3.

[3] = biological target: T1, hyaluronic acid-degrading enzyme (derived from bovine testicles, Type IV-S) (Bos taurus, UniProt Q2YDK3); test: Hyaluronic acid-degrading enzyme activity inhibition test; type: biochemical
T1 construct: derived from bovine testicles manufactured by Sigma Corporation, Type IV-S; purchased Sigma Corporation Type IV-S; host or cells: bovine testicles
T1 sequence (Q2YDK3 36-553): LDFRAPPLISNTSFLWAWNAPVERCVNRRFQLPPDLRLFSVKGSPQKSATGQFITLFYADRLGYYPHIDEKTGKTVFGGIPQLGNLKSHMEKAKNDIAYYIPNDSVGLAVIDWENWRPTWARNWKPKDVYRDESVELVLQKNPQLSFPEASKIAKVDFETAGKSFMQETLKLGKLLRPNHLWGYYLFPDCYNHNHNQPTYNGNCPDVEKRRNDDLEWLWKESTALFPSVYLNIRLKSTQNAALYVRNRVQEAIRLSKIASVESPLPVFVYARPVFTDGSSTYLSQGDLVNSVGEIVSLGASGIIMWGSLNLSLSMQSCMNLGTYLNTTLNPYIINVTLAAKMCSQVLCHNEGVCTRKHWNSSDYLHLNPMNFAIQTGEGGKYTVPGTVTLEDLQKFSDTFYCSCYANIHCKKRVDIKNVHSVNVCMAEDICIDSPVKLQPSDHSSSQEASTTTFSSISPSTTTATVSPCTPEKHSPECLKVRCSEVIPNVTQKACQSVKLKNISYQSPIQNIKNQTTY
Method: Using the compound 7 obtained in Example 2, the compound 34, and magnesium ascorbate phosphate as a comparative control, a hyaluronic acid-degrading enzyme activity inhibition test was carried out.
First, the following solutions shown in A to H were each prepared. • A: 0.1M acetate buffer solution was prepared by dissolving 0.60 g of acetic acid in 100 ml of distilled water. • B: A hyaluronidase solution was prepared by dissolving 7.2 mg of a hyaluronic acid-degrading enzyme (derived from bovine testicles manufactured by Sigma Corporation, Type IV-S) into 3.0 ml of the acetate buffer (prepared in the above A). • C: An activator solution was prepared by dissolving 1.0 mg of compound 48/80 (a hyaluronidase activator manufactured by Sigma Corporation) into 10.0 ml of the acetate buffer (prepared in the above A). • D: A hyaluronic acid solution was prepared by dissolving 12.0 mg of potassium hyaluronate (manufactured by Wako Pure Chemical Industries, Ltd.) into 15.0 ml of the acetate buffer (prepared in the above A). • E: A 0.4N sodium hydroxide aqueous solution was prepared by dissolving 1.60 g of sodium hydroxide into 100 ml of distilled water. • F: After 4.95 g of boric acid was dissolved into 50 ml of distilled water, a 1N sodium hydroxide aqueous solution was added until pH reached 9.1. Subsequently, the whole amount was made 100 ml by adding distilled water. • G: 1.0 g of p-dimethylaminobenzaldehyde, 1.25 ml of 10N hydrochloric acid, and 8.75 ml of acetic acid were mixed. The solution was used after the whole amount was made 100 ml by adding acetic acid immediately before use. • H: Each test compound was dissolved in the acetate buffer (prepared in the above A) so the final test concentration became 0.5 mg/ml and 1.0 mg/ml.
Next, the experimental operation was carried out with the procedures shown in the following (1) to (8).
(1) 0.2 ml of the test compound solution (prepared in the above H) and 0.1 ml of the hyaluronic acid-degrading enzyme solution (prepared in the B) were mixed and the whole was incubated at 37° C. for 20 minutes.
(2) To the above reaction solution was added 0.2 ml of the activator solution (prepared in the above C) and the whole was incubated at 37° C. for 20 minutes.
(3) To the above reaction solution was added 0.5 ml of the hyaluronic acid solution (prepared in the above D), and the whole was incubated at 37° C. for 40 minutes.
(4) To the above reaction solution was added 0.2 ml of the 0.4N sodium hydroxide aqueous solution (prepared in the above E), and the whole was cooled in an ice bath.
(5) To the above reaction solution was added 0.2 ml of the boric acid solution (prepared in the above F), and the whole was heated at 100° C. for 3 minutes.
(6) The above reaction solution was cooled in an ice bath.
(7) To the above reaction solution was added 3.0 ml of the p-dimethylaminobenzaldehyde solution (prepared in the above G), and the whole was incubated at 37° C. for 20 minutes.
(8) Absorbance of the reaction solution at 585 nm was measured using a spectrophotometer.
The above experimental operations were repeated three times, and the resulting numeric value was inserted in the following calculation formula and a mean value thereof was regarded as a hyaluronic acid-degrading enzyme activity inhibition ratio (%). Hyaluronic acid-degrading enzyme activity inhibition ratio (%)=(A−B)/A×100
A=absorbance obtained at the time when operation was carried out with addition of no test compound
B=absorbance obtained at the time when operation was carried out with addition of test compound
The compounds of the invention and magnesium ascorbate phosphate were each used in an enzymatic reaction solution in amounts of 0.1 mg/ml, 0.2 mg/ml, and 0.4 mg/ml, and the results were shown in Table 7 (since the compound 7 was not dissolved in a concentration of 0.4 mg/ml, the test was not carried out).

mushroom tyrosinase [4] = test: Tyrosinase activity inhibition test using L-dopa as substrate (Test Examples 1 and 2, absorbance at 475 nm); type: biochemical
Method: as §1, with “7” for “37”, “2,” for “21,”, “13” for “38”, “5, a mixture of” for “22,”, “18 and the compound 19 (existing molar ratio 45:55)” for “39”, “7,” for “23,”
The specific test procedures are as follows. • (1) 1.80 ml of a phosphate buffer prepared by dissolving 1.000 g of sodium dihydrogen phosphate and 1.186 g of disodium hydrogen phosphate in 500 ml of distilled water, 1.00 ml of a substrate solution prepared by dissolving 32.7 mg of L-DOPA in 200 ml of distilled water, and 0.10 ml of a test solution prepared by dissolving the test compound in dimethyl sulfoxide were mixed together. • (2) 0.10 ml of an enzyme solution prepared by dissolving 3.0 mg (2400 units; manufactured by Sigma Corporation) of mushroom tyrosinase in 7.0 ml of distilled water was added to the solution prepared in (1), and the whole was stirred for 15 seconds. The resulting solution was maintained at 25° C., and the absorbance at 475 nm was measured one minute and 45 seconds later and 2 minutes and 45 seconds later. • (3) The test operations in the above (1) and (2) were conducted three times for the individual test compounds and blank test (only dimethyl sulfoxide), and the resulting numeric value was inserted in the following calculation formula and a mean value thereof was regarded as a tyrosinase activity inhibition ratio (%). Tyrosinase activity inhibition ratio (%)=[(T^1−T^2)/T^1]×100 • T^1=difference in absorbance of solution with addition of no test compound between 2 minutes and 45 seconds later and one minute and 45 seconds later • T^2=difference in absorbance of solution with addition of test compound was added between 2 minutes and 45 seconds later and one minute and 45 seconds later
Using the compound 40 obtained in Example 24 and arbutin (manufactured by Tokyo Kasei Kogyo Co., Ltd.) as a comparative control, a tyrosinase activity inhibition test was carried out using L-dopa as a substrate. The test procedure was in accordance with Test Example 1.

Compound: COc1cc(CCC(=O)CCCCCCCCCO)ccc1O [Compound 46]
- DPPH radical-scavenging ratio (%) [1]: 39.4%
- Tyrosinase activity inhibition ratio (%) (mushroom tyrosinase [2]; 0.031 mg/mL, Table 4): 14.9%
- Tyrosinase activity inhibition ratio (%) (mushroom tyrosinase [2]; 0.063 mg/mL, Table 4): 23.8%
- Tyrosinase activity inhibition ratio (%) (mushroom tyrosinase [2]; 0.125 mg/mL, Table 4): 36.9%

Compound: COc1cc(CCC(=O)CC(O)CCCCCCC(=O)O)ccc1O (stereo not shown) [Compound 34]
- Hyaluronic acid-degrading enzyme activity inhibition ratio (%) ([3]; 0.1 mg/mL): 12.1%
- Hyaluronic acid-degrading enzyme activity inhibition ratio (%) ([3]; 0.2 mg/mL): 31.6%
- Hyaluronic acid-degrading enzyme activity inhibition ratio (%) ([3]; 0.4 mg/mL): 81.3%
- Tyrosinase activity inhibition ratio (%) (mushroom tyrosinase [2]; 1.00 mg/ml, Table 5): 60.1%

Compound: magnesium ascorbate phosphate [reference compound]
- Hyaluronic acid-degrading enzyme activity inhibition ratio (%) ([3]; 0.1 mg/mL): 3.3%
- Hyaluronic acid-degrading enzyme activity inhibition ratio (%) ([3]; 0.2 mg/mL): 4.2%
- Hyaluronic acid-degrading enzyme activity inhibition ratio (%) ([3]; 0.4 mg/mL): 7.6%

Compound: OC[C@H]1O[C@@H](Oc2ccc(O)cc2)[C@H](O)[C@@H](O)[C@@H]1O [Arbutin, arbutin, reference compound]
- Tyrosinase activity inhibition ratio (%) (mushroom tyrosinase [2]; 0.031 mg/mL, Table 4): 10.7%
- Tyrosinase activity inhibition ratio (%) (mushroom tyrosinase [2]; 0.063 mg/mL, Table 4): 17.7%
- Tyrosinase activity inhibition ratio (%) (mushroom tyrosinase [2]; 0.125 mg/mL, Table 4): 24.7%
- Tyrosinase activity inhibition ratio (%) (mushroom tyrosinase [2]; 0.25 mg/mL, Table 6, 0.50 mg/mL): 35.8%
- Tyrosinase activity inhibition ratio (%) (mushroom tyrosinase [2]; 0.5 mg/mL, Table 3): 35.0%
- Tyrosinase activity inhibition ratio (%) (mushroom tyrosinase [2]; 0.5 mg/mL, Table 6, 0.50 mg/mL): 42.6%
- Tyrosinase activity inhibition ratio (%) (mushroom tyrosinase [2]; 1 mg/mL, Table 3): 41.6%
- Tyrosinase activity inhibition ratio (%) (mushroom tyrosinase [2]; 1.00 mg/ml, Table 5): 45.6%
- Tyrosinase activity inhibition ratio (%) (mushroom tyrosinase [4]; 0.125 mg/mL, Table 2): 23.1%
- Tyrosinase activity inhibition ratio (%) (mushroom tyrosinase [4]; 0.25 mg/mL, Table 2): 28.5%
- Tyrosinase activity inhibition ratio (%) (mushroom tyrosinase [4]; 0.5 mg/mL in enzymatic reaction solution, Table 1): 36.2%
- Tyrosinase activity inhibition ratio (%) (mushroom tyrosinase [4]; 0.5 mg/mL, Table 2): 34.6%
- Tyrosinase activity inhibition ratio (%) (mushroom tyrosinase [4]; 1 mg/mL in enzymatic reaction solution, Table 1): 42.2%

Compound: COC(=O)CCCCCCC(CC(=O)CCc1ccc(O)c(OC)c1)OC (stereo not shown) [Compound 36]
- DPPH radical-scavenging ratio (%) [1]: 31.7%

More lines, main results first:

- Tyrosinase activity inhibition ratio (%) (mushroom tyrosinase [2]; 0.5 mg/mL, Table 3): 51.3%
- Tyrosinase activity inhibition ratio (%) (mushroom tyrosinase [2]; 1 mg/mL, Table 3): 75.2%
Compound: COc1cc(CCC(O)CCCCCCCCC(=O)O)ccc1O (stereo not shown) [Compound 39]
- DPPH radical-scavenging ratio (%) [1]: 33.8%

- Tyrosinase activity inhibition ratio (%) (mushroom tyrosinase [2]; 0.5 mg/mL, Table 3): 48.6%
- Tyrosinase activity inhibition ratio (%) (mushroom tyrosinase [2]; 1 mg/mL, Table 3): 67.7%
Compound: COc1cc(CCC(O)/C=C/CCCCCCC(=O)O)ccc1O (stereo not shown) [Compound 37]
- DPPH radical-scavenging ratio (%) [1]: 37.6%
